Holding throughout (experiment): NCI tumour cell line growth inhibition, 48 h
The subject of experiment [1] is OVCAR-5 ovarian.
In experiment [2] the test system is 786-0 renal.
The subject of experiment [3] is RPMI-8226 leukemia.
The subject of experiment [4] is BT-549 breast.
Experiment [5] concerns HOP-92 NSCLC.
Experiment [6] relates to OVCAR-8 ovarian.
Experiment [7] has as its system RXF 393 renal.
Experiment [8] concerns SF-268 CNS.
Experiment [9] deals with COLO 205 colon.
In experiment [10] the test system is UACC-62 melanoma.

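Assay format: 96-well plates, 48-hour exposure. The concentration for full growth arrest is given as TGI.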 A value given as a limit tells only on which side of the number the result lay.

TGI data for twelve compounds are collected here from PubChem BioAssay (NCI).

Turning to `N#CCCN(CCC#N)c1ccc(/C=C2\N=C(c3ccccc3)N(c3ccc(F)cc3)C2=O)cc1`, the TGI in [1], in [2], in [3], in experiment [4], in [5] and in experiment [6] was greater than 100 µM in each case. For the same compound, the TGI in [7], in [8], in [9] and in [10] was greater than 100 µM in each case.

Consider `COc1ccc([C@H]2[C@H]3COC(=O)[C@H]3C(C#N)=C3Sc4ccccc4N32)cc1`, for which the TGI is greater than 100 µM in experiment [1]; greater than 100 µM in experiment [2]; 72 µM in experiment [3]; 48.9 µM in experiment [4]; greater than 100 µM in experiment [5]; greater than 100 µM in experiment [6]. The TGI in experiment [7] is 38.4 µM; in [8] it was greater than 100 µM; in [9], 34.5 µM; in experiment [10], greater than 100 µM.

In the case of `N#Cc1c(-c2ccc(Cl)cc2)c2c(nn3c4ccc5ccccc5c4nnc23)[nH]c1=O`, the TGI is 23.4 µM in [1]; 6.16 µM in [2]; greater than 28.9 µM in experiment [3]; 2.92 µM in [4]; 6.72 µM in experiment [5]; 6.98 µM in [6]. Also, the TGI in [7] was found to be 3.72 µM; in experiment [8] it was 8.26 µM; in experiment [9] it was 10.6 µM; in experiment [10] it was 3.24 µM.

Consider `Oc1cc(Cc2ccccc2)c(Cc2ccccc2)cc1O`, for which the TGI in experiment [1], in experiment [2], in experiment [3], in experiment [4], in [5] and in [6] was greater than 10 µM in each case. Moreover, the TGI in [7], in experiment [8], in experiment [9] and in [10] was greater than 10 µM throughout.

As for `CC(=O)Nc1ccc2c(C)c3c(nc2n1)[nH]c1ccccc13`, the TGI in [1] is greater than 100 µM; in [2], greater than 100 µM; in experiment [3] it was 55.2 µM; in experiment [4] it was 80.2 µM; in experiment [5], 79 µM; in [6] it was 87.6 µM. For the same compound, the TGI in experiment [7] was greater than 100 µM; in experiment [8] it was greater than 100 µM; in experiment [9], 32 µM; in experiment [10], 60.9 µM.

As to `CCO/C(=N/S(=O)(=O)C(F)(F)F)N(C(C)C)C(C)C`, the TGI in [1], in experiment [2], in [3], in [4], in experiment [5] and in [6] was greater than 100 µM in each case. The TGI in experiment [7], in [8], in experiment [9] and in [10] was greater than 100 µM each time.

For `CC(C)/C(Cl)=N/OC(=O)Nc1ccc(Br)cc1`, the TGI was found to be 28.6 µM in experiment [1]; 3.63 µM in [2]; 5.24 µM in experiment [3]; 9.19 µM in experiment [4]; 3.35 µM in [5]; 27.8 µM in experiment [6]. In addition, the TGI amounted to 23.9 µM in experiment [7], 34 µM in experiment [8], 3.43 µM in experiment [9] and 17 µM in experiment [10].

`CN(C)CC(O)c1ccc(Cl)c2ccccc12` (stereo not given): the TGI was greater than 100 µM in experiment [1]; greater than 100 µM in experiment [2]; 11 µM in experiment [3]; greater than 100 µM in [4]; greater than 68.2 µM in experiment [5]; greater than 100 µM in experiment [6]. The TGI is greater than 64.9 µM in experiment [7], greater than 100 µM in [8], 49.2 µM in [9] and 34 µM in experiment [10].

Turning to `COc1cc2c(c3c1c(=O)c1ccccc1n3C)C=CC1(CCCC1)O2`, the TGI was 27 µM in experiment [1]; 25.1 µM in experiment [2]; 5.48 µM in experiment [3]; 25.5 µM in experiment [4]; 31.7 µM in [5]; 57.8 µM in experiment [6]. Moreover, the TGI in experiment [7] was determined as 22.8 µM; in [8], 46.8 µM; in experiment [9], 27.6 µM; in experiment [10], 29.1 µM.

Turning to `C=CCSC1=N/C(=C\c2ccc(Cl)cc2)C(=O)N1CC=C`, the TGI is greater than 100 µM in experiment [1]; greater than 100 µM in [2]; 52.9 µM in experiment [3]; 76.2 µM in [4]; 82.2 µM in experiment [5]; greater than 100 µM in experiment [6]. The TGI is 45.3 µM in [7], greater than 100 µM in experiment [8], greater than 100 µM in experiment [9] and greater than 100 µM in experiment [10].

On to `COc1cc(C2c3c(ccc4ccccc34)C(=O)C3CCC(=O)N32)cc(OC)c1OC` (stereo not given), for which the TGI in experiment [1], in experiment [2], in [3], in experiment [4], in [5] and in experiment [6] was greater than 50 µM each time. The TGI in experiment [7], in [8], in experiment [9] and in experiment [10] was greater than 50 µM throughout.

`COC1CC(N)(c2ccccc2)C(O)C(C)O1` (stereo not given): the TGI in experiment [1], in experiment [2], in experiment [3], in experiment [4], in [5] and in experiment [6] was greater than 100 µM throughout. Moreover, the TGI in experiment [7], in [8], in experiment [9] and in experiment [10] was greater than 100 µM each time.
